In brackets after ≈: the same amount, converted by molar mass. Where only a bound is given, the exact number is not on record here.

For this data set the following is noted: buffer; pH 7.4; 200.0 µM.
Compound `Cc1cc(C)c(O)c(NC(=S)NC(=O)Cc2ccccc2)c1` yielded a solubility (kinetic) of 3.9 µg/mL (≈ 12.4 µM).
Compound `Cc1ccc(C)c(NC(=O)C2COc3ccccc3O2)c1` (centres undefined) registered a kinetic solubility of 3.5 µg/mL (≈ 12.4 µM).
`COn1c(=O)c(-c2cccc(Br)c2)[n+]([O-])c2ccccc21` returned a solubility (kinetic) of 4.9 µg/mL (≈ 14.1 µM).
`COc1ccccc1C/C(N)=N/OC(=O)c1ccc2c(c1)OCO2` came in with a solubility (kinetic) of more than 49.2 µg/mL.
Then `O=C(CSc1cccc2cccnc12)Nc1cc(C(=O)O)cc(C(=O)O)c1`, with 52 µg/mL (≈ 136 µM); and `C/C(=N/OC(=O)c1ccccc1Br)c1ccc(C)cc1`, with 1.5 µg/mL (≈ 4.52 µM).
In the case of `Cc1cccc(NC(=O)Nc2ccc(Cl)cc2)n1` it was less than 0.2 µg/mL.
As for `O=C(O)C1C2CCC(O2)C1C(=O)Nc1ccccc1Br` (centres undefined), the kinetic solubility is more than 51 µg/mL.
Then `CC(=O)Nc1ccc(NC2=CC(=O)c3ccccc3C2=O)cc1`, with 1.1 µg/mL (≈ 3.59 µM); and `Cc1cc(NC(=O)Cn2c(=O)oc3ccccc32)no1`, with 8.6 µg/mL (≈ 31.5 µM).
In the case of `O=[N+]([O-])c1ccc(Cl)c(S(=O)(=O)Nc2cccc(S(=O)(=O)NC3=NCCC3)c2)c1` it was more than 68.8 µg/mL; in that of `COc1cc([N+](=O)[O-])ccc1NC(=O)Nc1ccc2c(c1)OCCO2`, less than 0.2 µg/mL.
Then `Fc1ccc(CNc2ncnc3cc(Cl)ccc23)cc1`, with 3.5 µg/mL (≈ 12.2 µM); and `Nc1c(N(CCCO)C(=O)C2CCCCC2)c(=O)[nH]c(=O)n1Cc1ccccc1`, with more than 60.1 µg/mL.
Take `CC(NC(=O)Nc1ccc(F)cc1)c1ccc2c(c1)OCO2` (centres undefined): the solubility (kinetic) is 3.4 µg/mL (≈ 11.2 µM).
In turn, `O=C(O)CSc1nnc(-c2cccc(S(=O)(=O)N3CCOCC3)c2)n1-c1ccc(F)cc1` returned a solubility (kinetic) of more than 71.8 µg/mL.
The compound `COc1cc2ccccc2cc1C(=O)Nc1ccc(N2CCOCC2)cc1` showed a solubility (kinetic) of 0.8 µg/mL (≈ 2.21 µM).
In the case of `Cc1ccc(C(=O)NCc2ccc3c(c2)CCO3)cc1C` it was 31.2 µg/mL (≈ 111 µM); in that of `COc1ccc(NC2=NC(C)(C)CS2)cc1`, 31.4 µg/mL (≈ 133 µM).
In the case of `NC(=O)c1ccccc1NC(=O)c1cccc(C(=O)Nc2ccccc2C(N)=O)n1` it was 5.3 µg/mL (≈ 13.1 µM); in that of `CCCC(=O)Nc1ccc2oc(-c3cncc(Br)c3)nc2c1`, 0.6 µg/mL (≈ 1.67 µM).
In the case of `CC(=O)Nc1nc2ccc(S(=O)(=O)N3CCCC3)cc2s1` it was 3.1 µg/mL (≈ 9.53 µM); in that of `Cc1cc(NC(=O)c2ccc([N+](=O)[O-])cc2)n(C)n1`, more than 39 µg/mL; in that of `O=C(CN1CCCCCC1)Nc1ccc(Br)cn1`, 33.7 µg/mL (≈ 108 µM).
`COc1cccc(CC(=O)OCC(=O)NCc2ccc3c(c2)OCO3)c1` displayed a kinetic solubility of more than 53.6 µg/mL.
In the case of `CC(C)(C)c1ccc(CCC2OCC(CN3CCOCC3)O2)cc1` (centres undefined) it was 40 µg/mL (≈ 120 µM); in that of `CCOC(=O)c1ccc(S(=O)(=O)N2CCN(C/C=C/c3ccccc3)CC2)cc1`, 2.8 µg/mL (≈ 6.75 µM).
Then `CCCCCC(=O)Nc1cccc(S(=O)(=O)NC2=NCCC2)c1`, with more than 50.6 µg/mL; and `O=C(Cc1cccc2ccccc12)Nc1ccccc1`, with 1.9 µg/mL (≈ 7.27 µM).
Compound `O=C(CSc1nc2ccccc2c(=O)n1CCCN1CCOCC1)Nc1ccccc1OC(F)F` yielded a solubility (kinetic) of more than 75.7 µg/mL.
Then `Cc1cccn2c(=O)c(/C=C(\C#N)C(N)=O)c(N3CCCCCC3)nc12`, with 5.1 µg/mL (≈ 14.5 µM); and `O=C1CC(Cc2ccccc2)C(=O)N1c1ncccn1` (centres undefined), with more than 40.1 µg/mL.
`CN(Cc1cnccn1)Cc1nc(Cc2ccccc2F)no1`: the solubility (kinetic) was more than 47 µg/mL.
Then `O=C(COc1ccccc1F)NCc1ccc(-n2cccc2)cc1`, with 1.1 µg/mL (≈ 3.39 µM).
Then `CCN(CC(=O)N1CCCC1)S(=O)(=O)c1cc(C)ccc1OC`, with 49.5 µg/mL (≈ 145 µM); and `COc1cccc(C(=O)N(Cc2cccs2)C2CCS(=O)(=O)C2)c1` (centres undefined), with more than 54.8 µg/mL.
The compound `CCOC(=O)C1=C(CC)Nc2ccccc2N=C1NC(=O)c1cc(S(=O)(=O)N2CCOCC2)ccc1C` had a solubility (kinetic) of 50.8 µg/mL (≈ 96.5 µM).
Compound `CC(=O)Nc1nc(-c2cc([N+](=O)[O-])cs2)cs1` returned a kinetic solubility of 0.7 µg/mL (≈ 2.6 µM).
Compound `CCOc1ncccc1C(=O)Nc1ccc(S(=O)(=O)N2CC(C)CC(C)C2)cc1` (centres undefined) registered a kinetic solubility of 0.9 µg/mL (≈ 2.16 µM).

As usually defined, the solubility (kinetic) is solubility judged after dilution from a stock solution rather than from solid.

The values above are taken from PubChem BioAssay AID1996.
